Earlier results in PMC7395068, “The evolution of strategies to minimise the risk of human drug-induced liver injury (DILI) in drug discovery and development” (Archives of Toxicology, 2020).
Like-named read-outs stand apart in the source and are kept apart here.

What was measured:
[1] = system: primary human hepatocytes, NIH3T3 fibroblasts, BSEP, CYP3A4; details: cited from earlier work
[2] = system: THLE-Null and THLE-3A4 cells; details: In vitro Assay; ref Gustafsson 2014; cited from earlier work
[3] = system: isolated mouse liver mitochondria; details: In vitro Assay; ref Porceddu 2012; cited from earlier work
[4] = cited from earlier work
[5] = system: HepG2 cells, primary human hepatocytes; details: ref Garside 2014, cited from earlier work
[6] = cited from earlier work; remark: listed apart in the source
human hepatocytes = details: In vitro Assay; ref Xu 2008; cited from earlier work
PHH spheroids = details: In vitro Assay; ref Vorrink 2018; cited from earlier work
[7] = system: THLE or HepG2 cells, isolated mitochondria, BSEP; details: In vitro Assay; ref Aleo 2019; cited from earlier work
HepG2 cells [8] = details: cited from earlier work
HepG2 cells [9] = details: In vitro Assay; ref Persson 2013; cited from earlier work
rBsep = details: In vitro Assay; ref Dawson 2012; cited from earlier work
[10] = In vitro Assay, ref Schadt 2015
[11] = In vitro Assay, ref O'Brien 2006

Row | SMILES | DILI +VE (5-8), DILI -VE (-4) ([6]; ref Chen 2016) | DILI severity category ([6]; ref Chen 2016) | Structural based (HCI) (human hepatocytes) | hLiMTs ATP <20 x Cmax (PHH spheroids) | In vivo DILI ([4]; ref Vorrink 2018) | In vivo DILI ([4]; ref Xu 2008) | other results
1 | Cc1ccc(Nc2c(F)cccc2Cl)c(CC(=O)O)c1 [lumiracoxib] |  |  |  |  |  |  | Cellular toxicity (3T3 cells) [1, 10]: -VE; Combined Assay [1, 10]: +VE; GSH adduct HML [1, 10]: +VE; Hepatocyte cellular toxicity [1, 10]: -VE; MitoTox 3T3 [1, 10]: -VE; TDI CYP3A4 [1, 10]: -VE; hBSEP inhibition [1, 10]: -VE; THLE-Null [2]: +VE; in vitro data EC2<=1x Cmax [3]: +VE
2 | CC(=O)[C@H]1CC[C@H]2[C@@H]3C[C@H](C)C4=CC(=O)CC[C@]4(C)[C@H]3[C@@H](O)C[C@]12C [medrysone] |  |  |  |  |  |  | In vivo DILI ([4]; assignment in Garside 2014, ref Garside 2014): -VE; Cluster 1-6 +VE Assay, In vitro Assay [5]: +VE
3 | COC(=O)C1=C(C)NC(C)=C(C(=O)OCC(C)C)C1c1ccccc1[N+](=O)[O-] (centres unmarked) [nisoldipine] | -VE | Ambiguous DILI-concern | -VE | -VE | -VE | -VE | In vivo DILI ([4]; […]): -VE
4 | Cc1cc2c(s1)Nc1ccccc1N=C2N1CCN(C)CC1 [olanzapine] |  |  |  |  |  |  | In vivo DILI ([4]; […]): -VE; In vivo DILI ([4]; ref Gustafsson 2014): +VE; In vivo DILI ([4]; ref Schadt 2015): -VE; In vivo DILI ([4]; ref Williams 2019): +VE; THLE-Null [2]: -VE
5 | Nc1ccc(/N=N/c2ccccc2)c(N)n1 [phenazopyridine] |  |  | -VE | -VE | +VE | +VE | Partition Hybrid HRM Score [7]: +VE; Ro2 Hybrid HRM Score [7]: -VE; In vivo DILI ([4]; ref Aleo 2019): -VE
6 | NNCCc1ccccc1 [phenelzine] | +VE | vLess-DILI-Concern | -VE | -VE | -VE | -VE | In vivo DILI ([4]; […]): +VE
7 | CC[C@@H]1C(=O)OC[C@@H]1Cc1cncn1C [pilocarpine] | -VE | Ambiguous DILI-concern | -VE | -VE | -VE | -VE | 
8 | COc1cc(NC(C)CCCN)c2ncccc2c1 (centres unmarked) [primaquine] | -VE | vNo-DILI-Concern | -VE | -VE | -VE | -VE | hBSEP inhibition [1]: -VE; Structural based (HCI) (HepG2 cells [8]; [11]): +VE; Partition Hybrid HRM Score [7]: -VE; Ro2 Hybrid HRM Score [7]: -VE; In vivo DILI ([4]; ref Aleo 2019): -VE; In vivo DILI ([4]; ref O'Brien 2006): -VE; In vivo DILI ([4]; ref Schadt 2015): -VE
9 | CCOC(=O)[C@H](CCc1ccccc1)N[C@@H](C)C(=O)N1Cc2ccccc2C[C@H]1C(=O)O [quinapril] | +VE | vLess-DILI-Concern | -VE | -VE | +VE | +VE | 
10 | C=C[C@H]1C[N@@]2CC[C@H]1C[C@@H]2[C@@H](O)c1ccnc2ccc(OC)cc12 [quinidine] |  |  |  | +VE (IC20 < 20 × Cmax.tot cut-off) |  |  | DILI +VE (5-8), DILI -VE (-4) ([6]; in vivo): +VE; DILI severity category ([6]; in vivo): vLess-DILI-Concern; Cellular toxicity (3T3 cells) [1]: +VE; GSH adduct HML [1]: -VE; TDI CYP3A4 [1]: -VE; hBSEP inhibition [1]: -VE; Structural based (HCI) (HepG2 cells [8]): +VE
11 | O=C(c1ccc(OCCN2CCCCC2)cc1)c1c(-c2ccc(O)cc2)sc2cc(O)ccc12 [raloxifene] | -VE | vNo-DILI-Concern | -VE | -VE | -VE | -VE | In vivo DILI ([4]; […]): -VE
12 | Cc1nc2n(c(=O)c1CCN1CCC(c3noc4cc(F)ccc34)CC1)CCCC2 [risperidone] |  |  | -VE | -VE | +VE | +VE | Cluser analysis (HepG2 cells [9]): +VE; Structural based (HCI) (HepG2 cells [9]): -VE; In vivo DILI ([4]; ref Persson 2013): +VE
13 | O=C(O)c1ccccc1O [salicylic acid] |  |  |  |  |  |  | THLE-Null [2]: -VE; in vitro data EC2<=1x Cmax [3]: +VE; Inhibition of rBsep cutoff<1& cmax u>.2 (rBsep): -VE; Inhibition of rBsep cutoff<3 (rBsep): -VE
14 | Cc1nnc(NS(=O)(=O)c2ccc(N)cc2)s1 [sulfamethizole] |  |  |  |  |  |  | Cluster 1-6 +VE Assay ([5]; In vitro Assay): -VE
15 | CCN1CCCC1CNC(=O)c1cc(S(N)(=O)=O)ccc1OC (centres unmarked) [sulpiride] |  |  |  |  |  |  | In vivo DILI ([4]; in vivo): +VE; THLE-Null [2]: -VE; Inhibition of rBsep cutoff<1& cmax u>.2 (rBsep): -VE; Inhibition of rBsep cutoff<3 (rBsep): -VE
16 | Cn1nnc2c(C(N)=O)ncn2c1=O [temozolomide] | +VE | vLess-DILI-Concern | -VE | -VE | -VE | -VE | Structural based (HCI) (HepG2 cells [8]; [11]): +VE (lowest HCI endpoint IC50 (or in the absence of dose–response < 100 µM) < 30 × total human plasma exposure levels (Cmax.tot)); In vivo DILI ([4]; ref O'Brien 2006): -VE
